Data as given in PubChem BioAssay AID2060502 (Molecular Pharmacology Branch, DTP, NCI, 2025).

Tested on: 885724-159-R-J1-PDC complex spheroid viability
Assay: Anticancer human tumor 885724-159-R-J1-PDC patient-derived pancreatic adenocarcinoma cell line growth inhibition [GQUAD]
Details: for IC50: curve of first compound; for viability, T/C: stronger effect = lower value
Procedure, shortened: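 Multi-cell-type spheroids of tumor cells with HUVEC and mesenchymal stem cells, treated with drug combinations. Concentrations descend in half-log steps from near clinical Cmax, or from 10 microM where Cmax is unknown; viability read-out.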

[1] = second compound 0.0316 µM, first compound 0.000999 µM
[2] = second compound 0.0316 µM, first compound 0.00316 µM
[3] = second compound 0.0316 µM, first compound 0.00999 µM
[4] = second compound 0.0316 µM, first compound 0.0316 µM
[5] = second compound 0.0316 µM, first compound 0.0999 µM
[6] = second compound 0.0316 µM, first compound 0.316 µM
[7] = second compound 0.1 µM, first compound 0.000999 µM
[8] = second compound 0.1 µM, first compound 0.00316 µM
[9] = second compound 0.1 µM, first compound 0.00999 µM
[10] = second compound 0.1 µM, first compound 0.0316 µM
[11] = second compound 0.1 µM, first compound 0.0999 µM
[12] = second compound 0.1 µM, first compound 0.316 µM
[13] = second compound 0.316 µM, first compound 0.000999 µM
[14] = second compound 0.316 µM, first compound 0.00316 µM
[15] = second compound 0.316 µM, first compound 0.00999 µM
[16] = second compound 0.316 µM, first compound 0.0316 µM
[17] = second compound 0.316 µM, first compound 0.0999 µM
[18] = second compound 0.316 µM, first compound 0.316 µM
[19] = second compound 1 µM, first compound 0.000999 µM
[20] = second compound 1 µM, first compound 0.00316 µM
[21] = second compound 1 µM, first compound 0.00999 µM
[22] = second compound 1 µM, first compound 0.0316 µM
[23] = second compound 1 µM, first compound 0.0999 µM
[24] = second compound 1 µM, first compound 0.316 µM
[25] = second compound 3.16 µM, first compound 0.000999 µM
[26] = second compound 3.16 µM, first compound 0.00316 µM
[27] = second compound 3.16 µM, first compound 0.00999 µM
[28] = second compound 3.16 µM, first compound 0.0316 µM
[29] = second compound 3.16 µM, first compound 0.0999 µM
[30] = second compound 3.16 µM, first compound 0.316 µM
[31] = second compound 10 µM, first compound 0.000999 µM
[32] = second compound 10 µM, first compound 0.00316 µM
[33] = second compound 10 µM, first compound 0.00999 µM
[34] = second compound 10 µM, first compound 0.0316 µM
[35] = second compound 10 µM, first compound 0.0999 µM
[36] = second compound 10 µM, first compound 0.316 µM
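Note: spheroids exposed to agents for seven days before readout.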
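Throughout, for viability, T/C: percent of vehicle control viability where 100% = DMSO wells.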

CC[C@@]1(O)C(=O)OCc2c1cc1n(c2=O)Cc2cc3c(CN(C)C)c(O)ccc3nc2-1 + Cc1[nH]c2ccc(F)cc2c1-c1nc2c3cccnc3c3ncccc3c2[nH]1
IC50 (second compound 0.0316 µM): > 316 nM | IC50 (second compound 0.1 µM): > 316 nM | IC50 (second compound 0.316 µM): > 316 nM | IC50 (second compound 1 µM): > 316 nM | IC50 (second compound 3.16 µM): < 0.999 nM | IC50 (second compound 10 µM): > 316 nM | viability, T/C [1]: 90.3% | viability, T/C [2]: 114% | viability, T/C [3]: 98.9% | viability, T/C [4]: 97.6% | viability, T/C [5]: 84.2% | viability, T/C [6]: 68.7% | viability, T/C [7]: 98.9% | viability, T/C [8]: 104% | viability, T/C [9]: 98% | viability, T/C [10]: 93.6% | viability, T/C [11]: 87.8% | viability, T/C [12]: 74.6% | viability, T/C [13]: 85.5% | viability, T/C [14]: 83.9% | viability, T/C [15]: 96.7% | viability, T/C [16]: 78.2% | viability, T/C [17]: 80.8% | viability, T/C [18]: 69.2% | viability, T/C [19]: 80.8% | viability, T/C [20]: 75.7% | viability, T/C [21]: 67.7% | viability, T/C [22]: 75.5% | viability, T/C [23]: 67% | viability, T/C [24]: 60.5% | viability, T/C [25]: 42.8% | viability, T/C [26]: 30.9% | viability, T/C [27]: 35.1% | viability, T/C [28]: 34.2% | viability, T/C [29]: 33.3% | viability, T/C [30]: 23.6% | viability, T/C [31]: 64.1% | viability, T/C [32]: 72.6% | viability, T/C [33]: 70.2% | viability, T/C [34]: 68.3% | viability, T/C [35]: 63.4% | viability, T/C [36]: 49.1%

CCc1c2c(nc3ccc(O)cc13)-c1cc3c(c(=O)n1C2)COC(=O)[C@]3(O)CC + Cc1[nH]c2ccc(F)cc2c1-c1nc2c3cccnc3c3ncccc3c2[nH]1
IC50 (second compound 0.0316 µM): 114 nM | IC50 (second compound 0.1 µM): 110 nM | IC50 (second compound 0.316 µM): 121 nM | IC50 (second compound 1 µM): 125 nM | IC50 (second compound 3.16 µM): < 0.999 nM | IC50 (second compound 10 µM): 62.4 nM | viability, T/C [1]: 96.4% | viability, T/C [2]: 83.6% | viability, T/C [3]: 83.2% | viability, T/C [4]: 73.9% | viability, T/C [5]: 55.5% | viability, T/C [6]: 18.4% | viability, T/C [7]: 104% | viability, T/C [8]: 90.5% | viability, T/C [9]: 76.8% | viability, T/C [10]: 70.4% | viability, T/C [11]: 60.9% | viability, T/C [12]: 21.3% | viability, T/C [13]: 85.8% | viability, T/C [14]: 86% | viability, T/C [15]: 73.3% | viability, T/C [16]: 69.5% | viability, T/C [17]: 59.8% | viability, T/C [18]: 21.5% | viability, T/C [19]: 78% | viability, T/C [20]: 61.1% | viability, T/C [21]: 57.6% | viability, T/C [22]: 60.6% | viability, T/C [23]: 58.7% | viability, T/C [24]: 18.9% | viability, T/C [25]: 43% | viability, T/C [26]: 28.7% | viability, T/C [27]: 28.4% | viability, T/C [28]: 21.3% | viability, T/C [29]: 14.1% | viability, T/C [30]: 7.27% | viability, T/C [31]: 63% | viability, T/C [32]: 58.8% | viability, T/C [33]: 46.8% | viability, T/C [34]: 60.3% | viability, T/C [35]: 45.5% | viability, T/C [36]: 21.4%

Cn1ncnc1[C@H]1c2n[nH]c(=O)c3cc(F)cc(c23)N[C@@H]1c1ccc(F)cc1 + Cc1[nH]c2ccc(F)cc2c1-c1nc2c3cccnc3c3ncccc3c2[nH]1
IC50 (second compound 0.0316 µM): > 316 nM | IC50 (second compound 0.1 µM): > 316 nM | IC50 (second compound 0.316 µM): > 316 nM | IC50 (second compound 1 µM): > 316 nM | IC50 (second compound 3.16 µM): < 0.999 nM | IC50 (second compound 10 µM): > 316 nM | viability, T/C [1]: 104% | viability, T/C [2]: 95.2% | viability, T/C [3]: 106% | viability, T/C [4]: 80.6% | viability, T/C [5]: 91.9% | viability, T/C [6]: 95.8% | viability, T/C [7]: 97.5% | viability, T/C [8]: 90% | viability, T/C [9]: 85.6% | viability, T/C [10]: 93.9% | viability, T/C [11]: 88.3% | viability, T/C [12]: 80.2% | viability, T/C [13]: 87.3% | viability, T/C [14]: 106% | viability, T/C [15]: 92% | viability, T/C [16]: 91.3% | viability, T/C [17]: 80.8% | viability, T/C [18]: 82.2% | viability, T/C [19]: 78% | viability, T/C [20]: 68.4% | viability, T/C [21]: 68.8% | viability, T/C [22]: 73.6% | viability, T/C [23]: 72% | viability, T/C [24]: 81% | viability, T/C [25]: 40.1% | viability, T/C [26]: 36.1% | viability, T/C [27]: 43.8% | viability, T/C [28]: 33.8% | viability, T/C [29]: 38% | viability, T/C [30]: 42.8% | viability, T/C [31]: 63% | viability, T/C [32]: 78.6% | viability, T/C [33]: 73.6% | viability, T/C [34]: 66.8% | viability, T/C [35]: 80.6% | viability, T/C [36]: 68.2%

O=C(c1cc(Cc2n[nH]c(=O)c3ccccc23)ccc1F)N1CCN(C(=O)C2CC2)CC1 + Cc1[nH]c2ccc(F)cc2c1-c1nc2c3cccnc3c3ncccc3c2[nH]1
IC50 (second compound 0.0316 µM): > 10000 nM | IC50 (second compound 0.1 µM): > 10000 nM | IC50 (second compound 0.316 µM): > 10000 nM | IC50 (second compound 1 µM): > 10000 nM | IC50 (second compound 3.16 µM): < 31.6 nM | IC50 (second compound 10 µM): > 10000 nM | viability, T/C [4]: 99.1% | viability, T/C (second compound 0.0316 µM, first compound 0.1 µM): 94.3% | viability, T/C [6]: 103% | viability, T/C (second compound 0.0316 µM, first compound 1 µM): 84.5% | viability, T/C (second compound 0.0316 µM, first compound 3.16 µM): 89.2% | viability, T/C (second compound 0.0316 µM, first compound 10 µM): 87.9% | viability, T/C [10]: 102% | viability, T/C (second compound 0.1 µM, first compound 0.1 µM): 111% | viability, T/C [12]: 92.2% | viability, T/C (second compound 0.1 µM, first compound 1 µM): 92.6% | viability, T/C (second compound 0.1 µM, first compound 3.16 µM): 103% | viability, T/C (second compound 0.1 µM, first compound 10 µM): 78.1% | viability, T/C [16]: 85.5% | viability, T/C (second compound 0.316 µM, first compound 0.1 µM): 88.7% | viability, T/C [18]: 90.3% | viability, T/C (second compound 0.316 µM, first compound 1 µM): 79.1% | viability, T/C (second compound 0.316 µM, first compound 3.16 µM): 96.2% | viability, T/C (second compound 0.316 µM, first compound 10 µM): 72.9% | viability, T/C [22]: 71.1% | viability, T/C (second compound 1 µM, first compound 0.1 µM): 71.1% | viability, T/C [24]: 77.2% | viability, T/C (second compound 1 µM, first compound 1 µM): 65.3% | viability, T/C (second compound 1 µM, first compound 3.16 µM): 76.8% | viability, T/C (second compound 1 µM, first compound 10 µM): 65.6% | viability, T/C [28]: 41.3% | viability, T/C (second compound 3.16 µM, first compound 0.1 µM): 39.9% | viability, T/C [30]: 56.6% | viability, T/C (second compound 3.16 µM, first compound 1 µM): 34.7% | viability, T/C (second compound 3.16 µM, first compound 3.16 µM): 49.8% | viability, T/C (second compound 3.16 µM, first compound 10 µM): 45.5% | viability, T/C [34]: 64.7% | viability, T/C (second compound 10 µM, first compound 0.1 µM): 70.5% | viability, T/C [36]: 76.8% | viability, T/C (second compound 10 µM, first compound 1 µM): 72.3% | viability, T/C (second compound 10 µM, first compound 3.16 µM): 70.6% | viability, T/C (second compound 10 µM, first compound 10 µM): 63.3%
